# From US20060223763A1, “C-glycoside compounds for stimulating the synthesis of glycosaminoglycans” (L'OREAL S.A., priority 2000, published 2006)
# Where “and” joins values, the source holds several entries; their conditions need not be identical. Equal entries are not always repeated.
# System: normal human dermal fibroblast cultures
# Assay: incorporation of radioactive glucosamine into the matrix neosynthesized by fibroblast cultures (GAG/hyaluronic acid synthesis)
# Format: cell-based
# Method: The study was performed by measuring the incorporation of radioactive glucosamine into the matrix neosynthesized by normal human dermal fibroblast cultures. The incorporation of radioactive glucosamine indicated a specific neosynthesis of glycosaminoglycans via incorporation of the acetylated form of this glucosamine.
# The fibroblast cultures were prepared according to the standard methods of cell culturing, i.e., in MEM/M199 medium sold by Gibco, in the presence of sodium bicarbonate (1.87 mg/ml), L-glutamine (2 mM), penicillin (50 IU/ml) and 10% foetal calf serum (Gibco).
# The test was performed on a cell culture at 80% confluence, on 96-well plates. The C-glycoside derivative at concentrations of 0.1 to 30 mM was placed in contact with the cells for 48 hours. Labeling with radioactive glucosamine (D-[6-H^3]-glucosamine, Amersham TRK398 (814 Gbq/mmol, 22 Ci/mmol)) was performed for 24 hours.
# The level of radioactive glucosamine incorporated was measured at the end of the test by adsorption of the anionic molecules onto Q-sepharose beads followed by desorption of the sparingly and moderately anionic molecules with 6M urea plus 0.2M NaCl. Once washed, the radioactivity incorporated into the highly cationic molecules remaining on the support was counted.
# The results were evaluated relative to a control consisting of cells that have not been treated with the C-glycoside derivative of formula (I).
# A positive control (TGFβ at 10 ng/ml) known to stimulate GAG synthesis was introduced into the test as positive reference.
# [1] = 0.1 mM, 48 hours contact, labeling 24 hours
# [2] = 0.5 mM, 48 hours contact, labeling 24 hours
# [3] = 0.3 mM, 48 hours contact, labeling 24 hours
# [4] = 1 mM, 48 hours contact, labeling 24 hours
# [5] = 3 mM, 48 hours contact, labeling 24 hours
# [6] = concentrations of 0.3, 1 and 3 mM
# [7] = TGFβ at 10 ng/ml, positive control, two values given
# [8] = 0.4 mM, 48 hours contact, labeling 24 hours
# [9] = 2 mM, 48 hours contact, labeling 24 hours
# [10] = 10 mM, 48 hours contact, labeling 24 hours
Molecule,% (relative to untreated control) [1] [%],VALUE (radioactive glucosamine incorporated) [1] [cpm],% (relative to untreated control) [3] [%],VALUE (radioactive glucosamine incorporated) [3] [cpm],% (relative to untreated control) [4] [%],VALUE (radioactive glucosamine incorporated) [4] [cpm],effect on incorporation of radioactive glucosamine [6],further results
"O=C[C@H](O)[C@@H](O)[C@H](O)CO [D-Xylose, reference compound]",102,6586,,,,,,% (relative to untreated control) [2]: 86%; VALUE (radioactive glucosamine incorporated) [2]: 4063 cpm
"CC(O)C[C@@H]1OC[C@@H](O)[C@H](O)[C@H]1O (stereo partly drawn) [C-β-D-Xylopyranoside-2-hydroxypropane, C-β-D-xylopyranoside-2-hydroxypropane]",,,139,11634,169,14209,,"% (relative to untreated control) [5]: 218%; VALUE (radioactive glucosamine incorporated) [5]: 18271 cpm; effect on incorporation of radioactive glucosamine (concentrations of 0.1, 0.3 and 1 mM): stimulates the incorporation of radioactive glucosamine"
CC(C[C@@H]1OC[C@@H](O)[C@H](O)[C@H]1O)NCCCO (stereo partly drawn) [1-[2-(3-Hydroxypropylamio)Propyl]-C-β-D-Xylopyranose],110,11656,109,11585,140,14832,stimulate the incorporation of radioactive glucosamine,
TGFβ: positive control (TGFβ at 10 ng/ml) known to stimulate GAG synthesis,,,,,,,,% (relative to untreated control) [7]: 348% and 454%; VALUE (radioactive glucosamine incorporated) [7]: 27124 cpm and 34865 cpm
O=C(C[C@@H]1OC[C@@H](O)[C@H](O)[C@H]1O)c1ccccc1 [1-Phenyl-2-(C-β-D-Xylopyranoside)Ethan-1-One],120,10113,102,8545,95,7941,stimulate the incorporation of radioactive glucosamine,
"CC(=O)C[C@@H]1OC[C@@H](O)[C@H](O)[C@H]1O [C-β-D-Xylopyranoside-n-propan-2-one, C-β-D-xylopyranoside-n-propan-2-one]",,,,,,,,"% (relative to untreated control) [8]: 141%; VALUE (radioactive glucosamine incorporated) [8]: 8564 cpm; % (relative to untreated control) [9]: 131%; VALUE (radioactive glucosamine incorporated) [9]: 11014 cpm; % (relative to untreated control) [10]: 161%; VALUE (radioactive glucosamine incorporated) [10]: 12507 cpm and 9811 cpm; effect on incorporation of radioactive glucosamine (concentrations of 0.4, 2 and 10 mM): stimulates the incorporation of radioactive glucosamine"
